Where only a bound is given, the exact number is not on record here.

The first assay concerns the target T1, Adrenergic receptor alpha-2 (Rattus norvegicus, UniProt P22086+P19328+P22909).
T1 sequence (P22086 whole entry): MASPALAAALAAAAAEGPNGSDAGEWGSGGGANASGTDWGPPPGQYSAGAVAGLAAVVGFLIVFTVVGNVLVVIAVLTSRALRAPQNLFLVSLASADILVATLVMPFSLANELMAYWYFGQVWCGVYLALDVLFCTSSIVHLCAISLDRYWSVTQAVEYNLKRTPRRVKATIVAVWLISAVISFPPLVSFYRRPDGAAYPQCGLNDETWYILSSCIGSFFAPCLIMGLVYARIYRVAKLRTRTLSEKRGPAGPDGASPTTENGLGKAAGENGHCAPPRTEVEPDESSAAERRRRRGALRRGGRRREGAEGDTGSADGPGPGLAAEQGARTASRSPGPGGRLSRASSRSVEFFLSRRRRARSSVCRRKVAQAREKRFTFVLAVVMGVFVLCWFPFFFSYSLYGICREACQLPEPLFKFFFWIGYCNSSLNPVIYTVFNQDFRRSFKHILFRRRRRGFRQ
T1 sequence (P19328 whole entry): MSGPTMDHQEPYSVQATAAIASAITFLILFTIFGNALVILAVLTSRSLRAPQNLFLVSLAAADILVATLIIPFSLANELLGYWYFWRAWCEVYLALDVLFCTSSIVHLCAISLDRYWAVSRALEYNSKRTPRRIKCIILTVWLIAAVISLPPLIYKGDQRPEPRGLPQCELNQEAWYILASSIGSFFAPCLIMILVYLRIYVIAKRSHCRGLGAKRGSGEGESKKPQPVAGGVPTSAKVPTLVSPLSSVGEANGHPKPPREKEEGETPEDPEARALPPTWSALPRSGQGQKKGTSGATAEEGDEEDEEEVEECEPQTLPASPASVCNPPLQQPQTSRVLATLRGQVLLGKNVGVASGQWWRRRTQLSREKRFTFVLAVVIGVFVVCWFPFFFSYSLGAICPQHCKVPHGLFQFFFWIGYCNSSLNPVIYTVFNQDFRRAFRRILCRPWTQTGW
T1 sequence (P22909 whole entry): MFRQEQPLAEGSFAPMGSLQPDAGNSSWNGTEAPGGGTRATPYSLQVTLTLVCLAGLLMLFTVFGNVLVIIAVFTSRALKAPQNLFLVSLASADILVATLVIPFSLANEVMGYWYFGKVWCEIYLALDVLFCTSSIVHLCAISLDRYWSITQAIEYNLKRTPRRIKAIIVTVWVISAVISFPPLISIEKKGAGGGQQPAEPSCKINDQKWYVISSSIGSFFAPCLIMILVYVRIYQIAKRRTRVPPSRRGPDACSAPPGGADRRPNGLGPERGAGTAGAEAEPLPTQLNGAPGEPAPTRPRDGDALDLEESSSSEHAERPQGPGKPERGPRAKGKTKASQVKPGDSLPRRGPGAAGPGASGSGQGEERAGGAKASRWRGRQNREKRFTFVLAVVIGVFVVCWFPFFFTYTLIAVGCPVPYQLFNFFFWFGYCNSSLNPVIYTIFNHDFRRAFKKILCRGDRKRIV
As to the kind of experiment: Inhibition of [3H]clonidine binding to rat Alpha2 adrenoceptor. The class given is protein assay.
Compound `CCCCNS(=O)(=O)c1ccc2c(c1)CNC(CF)C2` (stereo not given) gave a Ki of 260 µM. On the same count and under the same terms, for `O=S(=O)(c1ccc2c(c1)CNC(CF)C2)N1CCSCC1` (stereo not given) the value was 190 µM; for `O=S(=O)(NC1CCc2ccccc2C1)c1ccc2c(c1)CNC(CF)C2` (stereo not given), 1.3 µM; for `O=S(=O)(NCCc1ccccc1)c1ccc2c(c1)CNC(CF)C2` (stereo not given), 58 µM. Same read-out and setting: for `O=S(=O)(Nc1ccc(F)cc1)c1ccc2c(c1)CNC(CF)C2` (stereo not given) the value was 86 µM. Still for that read-out and setting: under `COCCCNS(=O)(=O)c1ccc2c(c1)CNC(CF)C2` (stereo not given) stands 750 µM; under `O=S(=O)(c1ccc2c(c1)CNC(CF)C2)N1CCCCC1` (stereo not given), 820 µM; under `O=S(=O)(Nc1ccc(O)cc1)c1ccc2c(c1)CNC(CF)C2` (stereo not given), 280 µM. `O=S(=O)(NCCC(F)(F)F)c1ccc2c(c1)CNC(CF)C2` (stereo not given) registered a Ki of 660 µM.

`COCCNS(=O)(=O)c1ccc2c(c1)CNC(CF)C2` (stereo not given): the Ki was determined as 430 µM. On the same count and under the same terms, under `CCOCCCNS(=O)(=O)c1ccc2c(c1)CNC(CF)C2` (stereo not given) stands 350 µM; under `CCOCCNS(=O)(=O)c1ccc2c(c1)CNC(CF)C2` (stereo not given), 440 µM. As to `O=[N+]([O-])c1cccc(NS(=O)(=O)c2ccc3c(c2)CNC(CF)C3)c1` (stereo not given), the Ki was greater than 1000 µM. Same read-out and setting: under `Clc1ccc2c(c1Cl)CNCC2` stands 0.02 µM; under `O=S(=O)(Nc1cccc(Cl)c1)c1ccc2c(c1)CNC(CF)C2` (stereo not given), greater than 1000 µM. `O=S(=O)(NC12CC3CC(CC(C3)C1)C2)c1ccc2c(c1)CNC(CF)C2` (stereo not given) gave a Ki of 100 µM.

Consider `O=S(=O)(NCC(F)(F)F)c1ccc2c(c1)CNC(CF)C2` (stereo not given), for which the Ki was 1200 µM. Still for that read-out and setting: under `O=[N+]([O-])c1ccc(NS(=O)(=O)c2ccc3c(c2)CNC(CF)C3)cc1` (stereo not given) stands greater than 1000 µM; under `O=S(=O)(NCCCC(F)(F)F)c1ccc2c(c1)CNC(CF)C2` (stereo not given), 350 µM; under `O=S(=O)(c1ccc2c(c1)CNC(CF)C2)N1CCOCC1` (stereo not given), 2100 µM. On the same count and under the same terms, under `CC(C)NS(=O)(=O)c1ccc2c(c1)CNC(CF)C2` (stereo not given) stands 580 µM; under `O=S(=O)(Nc1ccc2ccccc2c1)c1ccc2c(c1)CNC(CF)C2` (stereo not given), 12 µM; under `O=S(=O)(Nc1ccc(Cl)cc1)c1ccc2c(c1)CNC(CF)C2` (stereo not given), 140 µM. Same read-out and setting: under `CCCNS(=O)(=O)c1ccc2c(c1)CNC(CF)C2` (stereo not given) stands 610 µM; under `CCNS(=O)(=O)c1ccc2c(c1)CNC(CF)C2` (stereo not given), 550 µM. Regarding `O=S(=O)(NCCCCc1ccccc1)c1ccc2c(c1)CNC(CF)C2` (stereo not given), the Ki came to 6.8 µM.

The next assay deals with T2, Phenylethanolamine N-methyltransferase (Homo sapiens, UniProt P11086).
T2 sequence (P11086 whole entry): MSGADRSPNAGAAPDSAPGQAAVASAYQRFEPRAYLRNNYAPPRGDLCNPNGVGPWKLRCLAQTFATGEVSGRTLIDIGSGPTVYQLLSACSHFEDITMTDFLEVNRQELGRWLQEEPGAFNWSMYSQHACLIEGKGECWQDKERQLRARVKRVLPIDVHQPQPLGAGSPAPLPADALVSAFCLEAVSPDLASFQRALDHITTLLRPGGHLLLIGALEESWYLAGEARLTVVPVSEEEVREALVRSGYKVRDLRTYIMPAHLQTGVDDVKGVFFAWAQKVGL
Experiment: not given
In the case of `O=[N+]([O-])c1cccc(NS(=O)(=O)c2ccc3c(c2)CNC(CF)C3)c1` (stereo not given), affinity was put at a Ki of 250 µM. The same measure, in the same setting: for `O=S(=O)(Nc1cccc(Cl)c1)c1ccc2c(c1)CNC(CF)C2` (stereo not given) the value was 890 µM.

The species entered for a further assay is Homo sapiens. The assay is described as follows: Ratio of Ki for alpha-2-adrenoceptor to that of PNMT was determined.
As to `O=[N+]([O-])c1cccc(NS(=O)(=O)c2ccc3c(c2)CNC(CF)C3)c1` (stereo not given), the Selectivity is greater than 4. Still for that read-out and setting: under `O=S(=O)(Nc1cccc(Cl)c1)c1ccc2c(c1)CNC(CF)C2` (stereo not given) stands greater than 1.1.

A word on the Ki: it is a measure of affinity in units of concentration, obtained from inhibition or displacement.

(Values after ChEMBL document CHEMBL1137211, “Inhibitors of phenylethanolamine N-methyltransferase that are predicted to penetrate the blood-brain barrier: design, synthesis, and evaluation of 3-fluoromethyl-7-(N-substituted aminosulfonyl)-1,2,3,4-tetrahydroisoquinolines that possess low affinity toward the alpha2-adrenoceptor” (J Med Chem, 2004).)
